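Values below derive from 48-hour exposures of cells grown in 96-well plates, with endpoints linearly interpolated between the two concentrations bracketing the appropriate inhibition level. At the GI50, growth is halved. TGI marks complete inhibition of growth.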
Legend:
Assay in all cases: NCI-60 cell line screen, 48 h
UACC-62 melanoma = tested on: UACC-62 melanoma
RPMI-8226 leukemia = tested on: RPMI-8226 leukemia
CCRF-CEM leukemia = tested on: CCRF-CEM leukemia
SNB-19 CNS = tested on: SNB-19 CNS
HOP-62 NSCLC = tested on: HOP-62 NSCLC
SK-MEL-28 melanoma = tested on: SK-MEL-28 melanoma
HCT-15 colon = tested on: HCT-15 colon
TK-10 renal = tested on: TK-10 renal
OVCAR-5 ovarian = tested on: OVCAR-5 ovarian
NCI/ADR-RES ovarian = tested on: NCI/ADR-RES ovarian
MCF7 breast = tested on: MCF7 breast
LOX IMVI melanoma = tested on: LOX IMVI melanoma
SR leukemia = tested on: SR leukemia
786-0 renal = tested on: 786-0 renal
A549 NSCLC = tested on: A549 NSCLC
IGROV1 ovarian = tested on: IGROV1 ovarian
HCT-116 colon = tested on: HCT-116 colon
PC-3 prostate = tested on: PC-3 prostate
SNB-75 CNS = tested on: SNB-75 CNS
SK-MEL-2 melanoma = tested on: SK-MEL-2 melanoma
BT-549 breast = tested on: BT-549 breast
OVCAR-3 ovarian = tested on: OVCAR-3 ovarian
K-562 leukemia = tested on: K-562 leukemia
SF-295 CNS = tested on: SF-295 CNS
UACC-257 melanoma = tested on: UACC-257 melanoma
SF-539 CNS = tested on: SF-539 CNS
SF-268 CNS = tested on: SF-268 CNS
SW-620 colon = tested on: SW-620 colon
T-47D breast = tested on: T-47D breast
CAKI-1 renal = tested on: CAKI-1 renal
NCI-H522 lung = tested on: NCI-H522 lung
HS 578T breast = tested on: HS 578T breast
OVCAR-4 ovarian = tested on: OVCAR-4 ovarian
EKVX NSCLC = tested on: EKVX NSCLC
DU-145 prostate = tested on: DU-145 prostate
HT29 colon = tested on: HT29 colon
ACHN renal = tested on: ACHN renal
MALME-3M melanoma = tested on: MALME-3M melanoma
SN12C renal = tested on: SN12C renal
MOLT-4 leukemia = tested on: MOLT-4 leukemia
HL-60(TB) leukemia = tested on: HL-60(TB) leukemia
UO-31 renal = tested on: UO-31 renal
M14 melanoma = tested on: M14 melanoma
NCI-H226 lung = tested on: NCI-H226 lung
NCI-H23 lung = tested on: NCI-H23 lung
SK-MEL-5 melanoma = tested on: SK-MEL-5 melanoma
COLO 205 colon = tested on: COLO 205 colon
NCI-H460 lung = tested on: NCI-H460 lung
RXF 393 renal = tested on: RXF 393 renal
KM12 colon = tested on: KM12 colon
OVCAR-8 ovarian = tested on: OVCAR-8 ovarian
MDA-MB-435 = tested on: MDA-MB-435
SK-OV-3 ovarian = tested on: SK-OV-3 ovarian
MDA-MB-231 breast = tested on: MDA-MB-231 breast
U251 CNS = tested on: U251 CNS
HCC-2998 colon = tested on: HCC-2998 colon
HOP-92 NSCLC = tested on: HOP-92 NSCLC

`COc1cc2c(cc1OCCCCCCCCN1C(=O)c3cccc4cccc(c34)C1=O)N=C[C@@H]1CCCN1C2=O` was tested, and the TGI (UACC-62 melanoma) was 28.4 µM, the TGI (RPMI-8226 leukemia) was 8.53 µM and the TGI (CCRF-CEM leukemia) was 7.28 µM. The TGI (SNB-19 CNS) was > 100 µM, the TGI (HOP-62 NSCLC) was > 100 µM and the TGI (SK-MEL-28 melanoma) was 37.9 µM. For the same molecule, the TGI (HCT-15 colon) was 32.7 µM, the TGI (TK-10 renal) was > 100 µM and the TGI (OVCAR-5 ovarian) was 66.2 µM. For the same molecule, the TGI (NCI/ADR-RES ovarian) was 19.4 µM, the TGI (MCF7 breast) was 22.3 µM and the TGI (LOX IMVI melanoma) was 25.5 µM. For the same molecule, the TGI (SR leukemia) was 21.7 µM, the TGI (786-0 renal) was > 100 µM and the TGI (A549 NSCLC) was > 100 µM. The TGI (IGROV1 ovarian) was 64.7 µM, the TGI (HCT-116 colon) was > 100 µM and the TGI (PC-3 prostate) was 27.6 µM. For the same molecule, the TGI (SNB-75 CNS) was 10.3 µM, the TGI (SK-MEL-2 melanoma) was 74.6 µM and the TGI (BT-549 breast) was 35.1 µM. For the same molecule, the TGI (OVCAR-3 ovarian) was 55.9 µM, the TGI (K-562 leukemia) was 23.1 µM and the TGI (SF-295 CNS) was 43 µM. For the same molecule, the TGI (UACC-257 melanoma) was 68.8 µM, the TGI (SF-539 CNS) was 13.2 µM and the TGI (SF-268 CNS) was 58.5 µM. For the same molecule, the TGI (SW-620 colon) was > 100 µM, the TGI (T-47D breast) was > 100 µM and the TGI (CAKI-1 renal) was 52.6 µM. The TGI (NCI-H522 lung) was 39.9 µM, the TGI (HS 578T breast) was > 100 µM and the TGI (OVCAR-4 ovarian) was 7.41 µM. For the same molecule, the TGI (EKVX NSCLC) was 35.7 µM, the TGI (DU-145 prostate) was > 100 µM and the TGI (HT29 colon) was 36.2 µM. The TGI (ACHN renal) was > 100 µM, the TGI (MALME-3M melanoma) was 49.2 µM and the TGI (SN12C renal) was 63.9 µM. The TGI (MOLT-4 leukemia) was 9.42 µM, the TGI (HL-60(TB) leukemia) was 52.3 µM and the TGI (UO-31 renal) was > 100 µM. The TGI (M14 melanoma) was > 100 µM, the TGI (NCI-H226 lung) was 46.8 µM and the TGI (NCI-H23 lung) was 36.3 µM. For the same molecule, the TGI (SK-MEL-5 melanoma) was 25.4 µM, the TGI (COLO 205 colon) was 21.7 µM and the TGI (NCI-H460 lung) was 72 µM. For the same molecule, the TGI (RXF 393 renal) was 29.7 µM, the TGI (KM12 colon) was 52 µM and the TGI (OVCAR-8 ovarian) was 57.8 µM. The TGI (MDA-MB-435) was 51.7 µM, the TGI (SK-OV-3 ovarian) was 9.72 µM and the TGI (MDA-MB-231 breast) was 34 µM. The TGI (U251 CNS) was 25.3 µM and the TGI (HCC-2998 colon) was 30.7 µM.
For `OCC#Cc1ccccc1C#Cc1ccc(C#Cc2ccccc2C#CCO)s1`, the GI50 (UACC-62 melanoma) was 19.5 µM, the TGI (UACC-62 melanoma) was 43.4 µM and the GI50 (RPMI-8226 leukemia) was 22.2 µM. It also gave a TGI (RPMI-8226 leukemia) of 49.1 µM, a GI50 (SNB-19 CNS) of 22.1 µM and a TGI (SNB-19 CNS) of 42.7 µM. For the same molecule, the GI50 (HOP-62 NSCLC) was 22.6 µM, the TGI (HOP-62 NSCLC) was 53.7 µM and the GI50 (SK-MEL-28 melanoma) was 20.5 µM. The TGI (SK-MEL-28 melanoma) was 46.8 µM, the GI50 (HCT-15 colon) was 25.3 µM and the TGI (HCT-15 colon) was 91.1 µM. It also gave a GI50 (TK-10 renal) of 16.7 µM, a TGI (TK-10 renal) of 30.6 µM and a GI50 (OVCAR-5 ovarian) of 22.1 µM. The TGI (OVCAR-5 ovarian) was 46.5 µM, the GI50 (HOP-92 NSCLC) was 15.6 µM and the TGI (HOP-92 NSCLC) was 29.7 µM. The GI50 (NCI/ADR-RES ovarian) was 21.1 µM, the TGI (NCI/ADR-RES ovarian) was 36 µM and the GI50 (MCF7 breast) was 29.9 µM. The TGI (MCF7 breast) was > 100 µM, the GI50 (LOX IMVI melanoma) was 20.4 µM and the TGI (LOX IMVI melanoma) was 53.6 µM. For the same molecule, the GI50 (SR leukemia) was 36.9 µM, the TGI (SR leukemia) was > 100 µM and the GI50 (786-0 renal) was 19.3 µM. For the same molecule, the TGI (786-0 renal) was 37.7 µM, the GI50 (A549 NSCLC) was 19.1 µM and the TGI (A549 NSCLC) was 41 µM. It also gave a GI50 (IGROV1 ovarian) of 13.7 µM, a TGI (IGROV1 ovarian) of 34.2 µM and a GI50 (HCT-116 colon) of 24.2 µM. It also gave a TGI (HCT-116 colon) of 50.1 µM, a GI50 (PC-3 prostate) of 14.8 µM and a TGI (PC-3 prostate) of 28.7 µM. It also gave a GI50 (SNB-75 CNS) of 48.1 µM, a TGI (SNB-75 CNS) of 78.7 µM and a GI50 (SK-MEL-2 melanoma) of 14.6 µM. It also gave a TGI (SK-MEL-2 melanoma) of 35.8 µM, a GI50 (BT-549 breast) of 16.8 µM and a TGI (BT-549 breast) of 33.8 µM. For the same molecule, the GI50 (OVCAR-3 ovarian) was 12.8 µM, the TGI (OVCAR-3 ovarian) was 25.4 µM and the GI50 (K-562 leukemia) was 64 µM. For the same molecule, the TGI (K-562 leukemia) was > 100 µM, the GI50 (SF-295 CNS) was 15.1 µM and the TGI (SF-295 CNS) was 29.2 µM. It also gave a GI50 (UACC-257 melanoma) of 22.1 µM, a TGI (UACC-257 melanoma) of 42.7 µM and a GI50 (SF-539 CNS) of 18.1 µM. The TGI (SF-539 CNS) was 34.2 µM, the GI50 (SF-268 CNS) was 20.6 µM and the TGI (SF-268 CNS) was 44.5 µM. For the same molecule, the GI50 (SW-620 colon) was 18.4 µM, the TGI (SW-620 colon) was 37.3 µM and the GI50 (T-47D breast) was 17.3 µM. The TGI (T-47D breast) was 53.8 µM, the GI50 (CAKI-1 renal) was 12.1 µM and the TGI (CAKI-1 renal) was 25.1 µM. The GI50 (NCI-H522 lung) was 11.7 µM, the TGI (NCI-H522 lung) was 29.2 µM and the GI50 (HS 578T breast) was 22.3 µM. For the same molecule, the TGI (HS 578T breast) was 58.1 µM, the GI50 (OVCAR-4 ovarian) was 26.4 µM and the TGI (OVCAR-4 ovarian) was > 100 µM. For the same molecule, the GI50 (EKVX NSCLC) was 19.9 µM, the TGI (EKVX NSCLC) was 43.1 µM and the GI50 (DU-145 prostate) was 14.9 µM. For the same molecule, the TGI (DU-145 prostate) was 28.1 µM, the GI50 (ACHN renal) was 19.1 µM and the TGI (ACHN renal) was 43.3 µM. It also gave a GI50 (SN12C renal) of 20.1 µM, a TGI (SN12C renal) of 43 µM and a GI50 (HL-60(TB) leukemia) of 43.4 µM. For the same molecule, the TGI (HL-60(TB) leukemia) was > 100 µM, the GI50 (UO-31 renal) was 18.1 µM and the TGI (UO-31 renal) was 36 µM. For the same molecule, the GI50 (M14 melanoma) was 23.3 µM, the TGI (M14 melanoma) was 49 µM and the GI50 (NCI-H23 lung) was 18.3 µM. The TGI (NCI-H23 lung) was 33.4 µM, the GI50 (SK-MEL-5 melanoma) was 16.3 µM and the TGI (SK-MEL-5 melanoma) was 31.2 µM. It also gave a GI50 (COLO 205 colon) of 17.9 µM, a TGI (COLO 205 colon) of 48.5 µM and a GI50 (NCI-H460 lung) of 24.7 µM. It also gave a TGI (NCI-H460 lung) of 91.5 µM, a GI50 (RXF 393 renal) of 19.6 µM and a TGI (RXF 393 renal) of 39.6 µM. It also gave a GI50 (KM12 colon) of 15.1 µM, a TGI (KM12 colon) of 30.6 µM and a GI50 (OVCAR-8 ovarian) of 21.2 µM. For the same molecule, the TGI (OVCAR-8 ovarian) was 45.6 µM, the GI50 (MDA-MB-435) was 15.1 µM and the TGI (MDA-MB-435) was 29.2 µM. For the same molecule, the GI50 (SK-OV-3 ovarian) was 15.9 µM, the TGI (SK-OV-3 ovarian) was 34.4 µM and the GI50 (MDA-MB-231 breast) was 18.9 µM. The TGI (MDA-MB-231 breast) was 53.5 µM, the GI50 (U251 CNS) was 20.1 µM and the TGI (U251 CNS) was 42.3 µM. For the same molecule, the GI50 (HCC-2998 colon) was 14.7 µM and the TGI (HCC-2998 colon) was 28.8 µM.
